Source: US20060069021A1, “Compositions and methods for intranasal administration of inactive analogs of PTH or inactivated preparations of PTH or PTH analogs” (Nastech Pharmaceutical Company Inc., priority 2004, published 2006)
“Also recorded” adds a separate entry of the source. Like-named read-outs stand apart in the source and are kept apart here. Ends that are not written are not given here.

How the values were obtained:
ciliary motility = conditions: cited from earlier work
[1] = rats, intraduodenal, with 1% (w/v) saline dispersion of polycarbophil; cited from earlier work
aminopeptidases = conditions: cited from earlier work
[2] = aqueous solution at physiologic pH; cited from earlier work
ovariectomized rat model = conditions: cited from earlier work
[3] = tested on: Type II collagen production by human chondrocytes; experiment: Cartilage growth model: human chondrocytes in alginate beads, type II collagen ELISA; type: cell-based
Experimental: A. Approximately 3 million human chondrocyte cells (Cell Applications, Inc., San Diego, Calif.) encapsulated in alginate beads were received in 25 mL total volume of re-differentiated medium. Human chondrocytes in alginate beads produce their phenotypic markers such as aggrecan and type II collagen unlike in monolayer culture where chondrocytes lose their phenotypic characteristics and de-differentiate to fibroblast-like cells. Alginate based cell system was pursued to assess type II collagen expression as result of PTH dosing and therefore indication of any cartilage growth.
B. The cell-containing alginate bead suspension was transferred from cell culture flask to 50 mL conical tubes. A volume of 500 μL (˜62,500 cells per well) suspension was dispensed per well in 24-well plates. Samples were added to each well and final volume was brought to one milliliter with appropriate growth media. Controls included cells treated with re-differentiated media as positive control (Cell Applications, Inc., San Diego, Calif.), cells treated with chondrocyte growth media (Cell Applications, Inc., San Diego, Calif.) and basal media (Cell Applications, Inc., San Diego, Calif.) as negative controls.
C. Plates were swirled gently to allow homogenous mixture of each sample. Plates were placed in 37° C., 5% CO2 incubator. Human chondrocytes were grown for up to 12 days on longer. Appropriate growth media were replaced every second or third day. Alginate beads were prepared for type II collagen extraction on the last day of the experiment and extracted collagen was quantified using Native Type II Collagen Detection Kit (Chondrex Inc., Redmond Wash.). Pictures of cells immediately following the samples application and at several time points during the course of experiment were taken using the Olympus CK40 microscope and Nikon Cool Pix 4500 digital camera.
D. A capture ELISA kit (Native Type II Collagen Detection Kit, Chondrex Inc.) was used to measure native type II collagen. For measuring glycosaminoglycans, the kit used was Blyscan Sulfated Glycosaminoglycan Assay kit (Accurate Chemical & Scientific Corp.).
Next, the alginate-based cell system (cartilage growth model; refer to Example 2) was used to determine whether PTH dosing could stimulate chondrocytes to produce cartilage. […] Type II collagen is a major component of the extracelluar matrix of nasal cartilage and therefore was used as a molecular marker for cartilage growth in this assay.
The cell-containing alginate beads were incubated in the presence of various test solutions for 12 days at 37° C., 5% CO2. After the incubation, the alginate beads were processed using an extraction method in order to quantify the production of type II collagen.

[4] = anesthetized rats, cited from earlier work
[5] = tested on: human chondrocyte cell monolayer; experiment: Cell proliferation model: human chondrocyte monolayer, MTT assay; type: cell-based; conditions: MTT at t=0 and after 4 days at 37° C./5% CO2
Experimental: A. Chondrocyte monolayers (Cell Applications, Inc., San Diego, Calif.) derived from normal human cartilage were adhered on to a 24-well plate and shipped following the first doubling. Approximately 16000 cells per well were expected at the time the cells were received. Two plates were treated identically with PTH and appropriate control samples. Controls included cells treated with chondrocyte growth media for positive control (Cell Applications, Inc., San Diego, Calif.) and cells treated with basal media for negative control (Cell Applications, Inc., San Diego, Calif.).
B. After the cells are treated, one of the two plates was analyzed for cell viability (t=0 sample). The second plate was placed at 37° C., 5% CO2 incubator for 4 days, after which the plates were analyzed using the MTT assay.
C. MTT is a cell-permeable tetrazolium salt which is reduced by mitochondrial dehydrogenase activity to an insoluble colored formazan by viable cells with intact mitochondrial function or by nonmitochondrial NAD(P)H dehydrogenase activity from cells capable of generating a respiratory burst. […] We have employed a MTT reagent kit prepared by MatTek Corp for their units as in indicator of cell proliferation.
A human chondrocyte cell monolayer model was employed to examine cell proliferation (refer to Example 2). […]

Which “concentration producing ciliostasis / inhibiting ciliary motility” value (ciliary motility) does the source give for “2-alkyl-4-hydroxyquinolines [pyo compound]” here?
Its value is 50 µg/mL.

For “9-desglycinamide, 8-arginine vasopressin”, which “increase of bioavailability compared to aqueous solution without polymer” value [1] is on record?
The value was 3-5 fold.

What does the source list for `CC(C)CC(N)B(O)O` (stereo not drawn) [boro-leucine]?
effectiveness in enzyme inhibition relative to bestatin (aminopeptidases): more than 100 times; effectiveness in enzyme inhibition relative to puromycin (aminopeptidases): more than 1,000 times

For `CCN(CC)/[N+]([O-])=N/O.CCNCC` [diethylamine/NO], which “rate (time) of NO release” value [2] is on record?
Its value is less than 3 min.

With `NCCN(CCN)/[N+]([O-])=N/O` [diethylenetriamine/NO (DETANO), diethylenetriamine/NO] as the molecule, how does the “rate (time) of NO release” value [2] read?
The value was “approximately 20 hours”.

For “Ser Val Ser Glu Ile Gln Leu Met His Asn Leu Gly Lys His Leu Asn Ser Met Glu Arg Val Glu Trp Leu Arg Lys Lys Leu Gln Asp Val-NH2 (SVSEIQLMHNLGKHLNSMERVEWLRKKLQDV-NH2) [hPTH-(1-31)-NH2]”, which “restoration of bone loss” value (ovariectomized rat model) is on record?
Its value is “fully active”.

Which “type II collagen production” value ([3]; 20 μg calcitonin) does the source give for calcitonin here?
The value was “no effect”.

And the “type II collagen production” value ([3]; 200 μg calcitonin)?
The value was “no effect”.

Which “nasal bioavailability of human growth hormone” value ([4]; with N-acetyl-L-cysteine (ACS)) does the source give for “human growth hormone: human growth hormone given nasally with or without N-acetyl-L-cysteine” here?
Its value is 12.2%.

And the “nasal bioavailability of human growth hormone” value ([4]; without N-acetyl-L-cysteine)?
The value was 7.5%.

For insulin-like growth factor I [IGF-I], which “type II collagen production” value ([3]; 5 μg IGF-I (positive control)) is on record?
Its value is “greater than 1.2 pg per culture”.

B1: PTH: Parathyroid hormone peptide tested in Example 4; which form (1-84 or 1-34) is not stated (peptide, UniProt P01270 32-115, looked up)
Parathyroid hormone: SVSEIQLMHNLGKHLNSMERVEWLRKKLQDVHNFVALGAPLAPRDAGSQRPRKKEDNVLVESHEKSLGEADKADVNVLTKAKSQ
modifications: Parathyroid hormone
Which “chondrocyte proliferation (MTT assay)” value ([5]; PTH in simple formulation (citrate buffer)) does the source give for B1 here?
The value was “did not stimulate chondrocyte proliferation”.

And the “chondrocyte proliferation (MTT assay)” value ([5]; PTH with permeation enhancers of Table 2)?
Its value is “did not stimulate chondrocyte proliferation”.

What about the “type II collagen production” value ([3]; 20 μg PTH in citrate buffer, 12 days at 37° C., 5% CO2) of the same molecule?
Its value is “did not induce a substantial production of type II collagen”.

And the “type II collagen production” value ([3]; 20 μg PTH with permeation enhancers, 12 days)?
Its value is “did not induce a substantial production of type II collagen”.

And the “type II collagen production” value ([3]; 200 μg PTH in simple formulation, 12 days)?
The value was “significant increase in type II collagen; also recorded: modest amounts of type II collagen production”.

What about the “type II collagen production” value ([3]; high concentration of PTH (200 μg) with permeation enhancers, 12 days) of the same molecule?
The value was “essentially no production of type II collagen; also recorded: did not induce any cartilage growth”.
